Results published in ChEMBL document CHEMBL5465560, “Selectivity Literature for EUbOPEN Chemogenomic Library” (2024).

Columns and labels:
[1] = target: Cyclin-dependent kinase 9 (Homo sapiens, UniProt P50750); experiment: Selectivity interaction (KinomeScan (DiscoverX)) EUB0000229b CDK9; conditions: at 10 µM
[2] = target: T1, Receptor-type tyrosine-protein kinase FLT3 (Homo sapiens, UniProt P36888); experiment: Selectivity interaction (NanoBRET assay (HEK293T cells)) EUB0001559a FLT3; type: cell-based, HEK-293T
T1 sequence (P36888 whole entry): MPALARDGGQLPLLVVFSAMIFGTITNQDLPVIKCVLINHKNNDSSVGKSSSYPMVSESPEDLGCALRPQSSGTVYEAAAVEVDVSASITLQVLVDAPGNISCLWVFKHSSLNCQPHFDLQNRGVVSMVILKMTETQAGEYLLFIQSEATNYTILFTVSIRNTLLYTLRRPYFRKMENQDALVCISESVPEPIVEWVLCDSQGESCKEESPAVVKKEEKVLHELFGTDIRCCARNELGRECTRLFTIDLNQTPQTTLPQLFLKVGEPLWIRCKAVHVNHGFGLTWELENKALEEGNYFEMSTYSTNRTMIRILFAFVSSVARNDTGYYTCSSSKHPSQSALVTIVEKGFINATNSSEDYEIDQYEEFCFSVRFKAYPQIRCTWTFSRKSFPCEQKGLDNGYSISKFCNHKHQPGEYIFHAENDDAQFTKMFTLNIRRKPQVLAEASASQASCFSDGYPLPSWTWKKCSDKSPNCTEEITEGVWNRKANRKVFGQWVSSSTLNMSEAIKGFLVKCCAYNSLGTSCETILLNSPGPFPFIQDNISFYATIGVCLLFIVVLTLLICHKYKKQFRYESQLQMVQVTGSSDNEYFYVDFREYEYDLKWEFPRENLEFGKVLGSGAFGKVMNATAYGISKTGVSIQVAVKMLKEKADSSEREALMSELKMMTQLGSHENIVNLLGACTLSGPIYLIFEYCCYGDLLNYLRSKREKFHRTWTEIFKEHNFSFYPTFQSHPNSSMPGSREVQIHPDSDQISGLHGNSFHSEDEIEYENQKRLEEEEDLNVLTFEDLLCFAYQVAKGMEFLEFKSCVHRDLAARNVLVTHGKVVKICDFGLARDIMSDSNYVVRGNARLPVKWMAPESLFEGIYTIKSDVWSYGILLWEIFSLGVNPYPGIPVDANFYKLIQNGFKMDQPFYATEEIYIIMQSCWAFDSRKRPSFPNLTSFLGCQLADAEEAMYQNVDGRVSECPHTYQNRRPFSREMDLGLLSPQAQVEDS

[3] = target: Tyrosine-protein kinase CSK (Homo sapiens) (UniProt P41240); experiment: Selectivity interaction (KinomeScan (DiscoverX)) EUB0001079a CSK; conditions: at 1 µM
Chain of Tyrosine-protein kinase CSK (Homo sapiens) (P41240 2-450 limits assumed): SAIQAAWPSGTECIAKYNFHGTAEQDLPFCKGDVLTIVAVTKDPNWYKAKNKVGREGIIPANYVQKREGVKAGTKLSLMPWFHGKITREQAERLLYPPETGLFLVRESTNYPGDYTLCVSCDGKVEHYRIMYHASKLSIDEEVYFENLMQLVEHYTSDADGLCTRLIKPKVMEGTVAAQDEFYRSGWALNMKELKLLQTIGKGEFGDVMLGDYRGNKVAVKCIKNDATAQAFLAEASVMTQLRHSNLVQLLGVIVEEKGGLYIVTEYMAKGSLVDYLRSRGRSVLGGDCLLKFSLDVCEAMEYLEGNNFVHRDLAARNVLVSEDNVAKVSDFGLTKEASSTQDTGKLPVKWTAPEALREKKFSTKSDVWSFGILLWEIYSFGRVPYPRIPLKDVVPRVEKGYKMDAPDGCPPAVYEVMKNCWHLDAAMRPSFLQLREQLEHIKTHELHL

[4] = target: T2, Serine/threonine-protein kinase Nek11 (Homo sapiens) (UniProt Q8NG66); experiment: Selectivity interaction (KinomeScan (DiscoverX)) EUB0000666a NEK11; conditions: at 10 µM
T2 sequence (whole entry): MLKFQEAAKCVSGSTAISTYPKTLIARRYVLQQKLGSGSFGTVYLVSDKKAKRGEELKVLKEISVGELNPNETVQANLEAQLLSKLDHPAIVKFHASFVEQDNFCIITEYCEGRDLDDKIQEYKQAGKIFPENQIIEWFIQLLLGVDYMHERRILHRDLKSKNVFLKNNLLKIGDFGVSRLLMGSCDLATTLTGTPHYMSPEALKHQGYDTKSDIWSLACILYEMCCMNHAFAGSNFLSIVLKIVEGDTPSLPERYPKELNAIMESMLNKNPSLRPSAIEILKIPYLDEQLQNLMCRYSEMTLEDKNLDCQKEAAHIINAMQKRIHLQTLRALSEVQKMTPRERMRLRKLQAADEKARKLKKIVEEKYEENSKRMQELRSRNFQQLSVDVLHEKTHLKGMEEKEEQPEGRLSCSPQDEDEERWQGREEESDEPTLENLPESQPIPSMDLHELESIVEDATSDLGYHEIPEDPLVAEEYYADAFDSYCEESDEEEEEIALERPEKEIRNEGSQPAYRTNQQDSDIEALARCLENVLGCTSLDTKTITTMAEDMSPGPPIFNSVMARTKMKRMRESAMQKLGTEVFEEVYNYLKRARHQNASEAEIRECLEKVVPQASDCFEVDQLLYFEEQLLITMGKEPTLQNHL

[5] = target: Tyrosine-protein kinase Yes (Homo sapiens) (UniProt P07947); experiment: Selectivity interaction (KinomeScan (DiscoverX)) EUB0001049a YES1; conditions: at 1 µM
Chain of Tyrosine-protein kinase Yes (Homo sapiens) (P07947 2-543 limits assumed): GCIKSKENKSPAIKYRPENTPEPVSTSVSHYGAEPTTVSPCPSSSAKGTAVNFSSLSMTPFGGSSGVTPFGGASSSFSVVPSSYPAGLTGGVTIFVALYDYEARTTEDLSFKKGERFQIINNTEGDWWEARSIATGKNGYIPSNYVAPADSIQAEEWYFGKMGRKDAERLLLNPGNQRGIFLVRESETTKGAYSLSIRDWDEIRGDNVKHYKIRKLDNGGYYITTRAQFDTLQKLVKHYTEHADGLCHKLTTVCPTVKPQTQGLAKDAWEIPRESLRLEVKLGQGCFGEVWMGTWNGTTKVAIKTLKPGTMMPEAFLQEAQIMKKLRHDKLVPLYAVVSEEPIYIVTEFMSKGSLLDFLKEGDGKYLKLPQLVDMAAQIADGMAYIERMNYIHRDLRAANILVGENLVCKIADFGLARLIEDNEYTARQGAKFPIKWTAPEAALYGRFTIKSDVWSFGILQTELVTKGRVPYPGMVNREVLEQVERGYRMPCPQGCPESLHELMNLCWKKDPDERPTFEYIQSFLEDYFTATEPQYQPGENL

[6] = target: Ribosomal protein S6 kinase alpha-3 (Homo sapiens, UniProt P51812); experiment: Selectivity interaction (Millipore kinase profiler) EUB0000124b RPS6KA3; conditions: at 10 µM
Chain of Ribosomal protein S6 kinase alpha-3 (P51812 whole entry): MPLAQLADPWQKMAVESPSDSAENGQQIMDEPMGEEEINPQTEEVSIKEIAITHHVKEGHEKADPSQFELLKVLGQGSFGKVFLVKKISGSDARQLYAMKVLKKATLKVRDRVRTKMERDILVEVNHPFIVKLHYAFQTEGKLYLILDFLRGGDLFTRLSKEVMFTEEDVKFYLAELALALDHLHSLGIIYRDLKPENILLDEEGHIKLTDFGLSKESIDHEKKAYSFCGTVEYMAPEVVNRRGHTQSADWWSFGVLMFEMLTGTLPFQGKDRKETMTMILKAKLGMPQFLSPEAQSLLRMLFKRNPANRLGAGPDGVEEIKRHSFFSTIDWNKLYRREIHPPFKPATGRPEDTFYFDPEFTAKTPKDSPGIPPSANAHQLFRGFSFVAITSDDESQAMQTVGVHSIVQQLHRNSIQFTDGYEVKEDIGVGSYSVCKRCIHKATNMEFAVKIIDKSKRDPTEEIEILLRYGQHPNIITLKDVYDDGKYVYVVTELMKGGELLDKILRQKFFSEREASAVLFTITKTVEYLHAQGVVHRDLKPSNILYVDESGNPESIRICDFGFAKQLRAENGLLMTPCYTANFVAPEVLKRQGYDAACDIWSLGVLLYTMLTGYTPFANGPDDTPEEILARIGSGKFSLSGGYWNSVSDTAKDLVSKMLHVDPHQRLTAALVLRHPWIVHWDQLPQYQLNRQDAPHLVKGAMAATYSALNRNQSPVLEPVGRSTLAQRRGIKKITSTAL

[7] = target: Receptor-interacting serine/threonine-protein kinase 2 (Homo sapiens, UniProt O43353); experiment: Selectivity interaction (Upstate Kinase Profiler service (Millipore)) EUB0000056c RIPK2; conditions: at 1 µM
Chain of Receptor-interacting serine/threonine-protein kinase 2 (O43353 whole entry): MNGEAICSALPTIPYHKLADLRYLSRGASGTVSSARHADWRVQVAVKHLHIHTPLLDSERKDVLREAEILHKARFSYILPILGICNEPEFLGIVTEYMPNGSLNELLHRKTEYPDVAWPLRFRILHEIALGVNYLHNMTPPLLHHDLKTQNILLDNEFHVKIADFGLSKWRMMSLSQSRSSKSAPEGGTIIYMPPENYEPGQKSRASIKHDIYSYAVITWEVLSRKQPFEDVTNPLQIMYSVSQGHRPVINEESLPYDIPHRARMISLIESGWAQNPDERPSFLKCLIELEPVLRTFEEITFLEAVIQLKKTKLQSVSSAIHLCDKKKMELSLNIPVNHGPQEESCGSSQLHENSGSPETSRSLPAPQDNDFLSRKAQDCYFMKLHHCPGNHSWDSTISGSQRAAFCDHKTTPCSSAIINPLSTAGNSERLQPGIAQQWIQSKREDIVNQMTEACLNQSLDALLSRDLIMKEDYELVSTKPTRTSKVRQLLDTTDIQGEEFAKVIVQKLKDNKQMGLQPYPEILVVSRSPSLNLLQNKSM

[8] = target: Tyrosine-protein kinase JAK2 (Homo sapiens, UniProt O60674); experiment: Selectivity interaction (ActivX KiNativ screen (ex vivo kinase selectivity in human PBMCs)) EUB0001619a JAK2; type: cell-based; conditions: PBMC, at 1 µM
Chain of Tyrosine-protein kinase JAK2 (O60674 whole entry, canonical isoform): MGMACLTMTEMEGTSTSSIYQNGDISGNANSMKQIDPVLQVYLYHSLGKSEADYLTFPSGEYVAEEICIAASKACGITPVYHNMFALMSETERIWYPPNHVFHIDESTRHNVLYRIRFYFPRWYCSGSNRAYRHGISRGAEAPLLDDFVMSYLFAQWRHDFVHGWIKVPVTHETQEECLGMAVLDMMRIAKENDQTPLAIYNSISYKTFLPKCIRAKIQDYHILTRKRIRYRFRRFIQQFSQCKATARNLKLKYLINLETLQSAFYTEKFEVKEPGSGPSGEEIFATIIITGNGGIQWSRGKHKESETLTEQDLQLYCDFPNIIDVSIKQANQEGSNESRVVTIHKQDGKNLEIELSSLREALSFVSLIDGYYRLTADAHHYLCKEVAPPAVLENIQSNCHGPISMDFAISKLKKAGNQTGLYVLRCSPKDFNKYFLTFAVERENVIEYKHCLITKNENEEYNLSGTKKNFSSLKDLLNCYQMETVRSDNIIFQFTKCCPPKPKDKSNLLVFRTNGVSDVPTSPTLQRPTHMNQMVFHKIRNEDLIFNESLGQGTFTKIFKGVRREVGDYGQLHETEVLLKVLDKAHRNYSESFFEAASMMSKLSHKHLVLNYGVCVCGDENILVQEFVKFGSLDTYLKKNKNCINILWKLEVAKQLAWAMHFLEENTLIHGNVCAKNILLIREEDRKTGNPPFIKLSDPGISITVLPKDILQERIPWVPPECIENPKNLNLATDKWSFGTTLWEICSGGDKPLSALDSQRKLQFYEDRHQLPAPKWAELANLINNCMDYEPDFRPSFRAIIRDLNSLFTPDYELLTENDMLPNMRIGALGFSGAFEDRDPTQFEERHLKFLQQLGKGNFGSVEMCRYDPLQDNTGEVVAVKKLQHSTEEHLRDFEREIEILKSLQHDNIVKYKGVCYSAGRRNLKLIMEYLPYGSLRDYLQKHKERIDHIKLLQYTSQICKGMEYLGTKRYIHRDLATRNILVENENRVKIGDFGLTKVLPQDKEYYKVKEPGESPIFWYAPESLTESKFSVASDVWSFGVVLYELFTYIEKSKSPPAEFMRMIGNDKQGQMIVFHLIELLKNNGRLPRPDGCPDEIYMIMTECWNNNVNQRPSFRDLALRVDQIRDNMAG

[9] = target: Casein kinase I isoform epsilon (Homo sapiens, UniProt P49674); experiment: Selectivity interaction (KinomeScan (DiscoverX)) EUB0000618a CSNK1E; conditions: at 10 µM
Chain of Casein kinase I isoform epsilon (P49674 whole entry, looked up, canonical isoform): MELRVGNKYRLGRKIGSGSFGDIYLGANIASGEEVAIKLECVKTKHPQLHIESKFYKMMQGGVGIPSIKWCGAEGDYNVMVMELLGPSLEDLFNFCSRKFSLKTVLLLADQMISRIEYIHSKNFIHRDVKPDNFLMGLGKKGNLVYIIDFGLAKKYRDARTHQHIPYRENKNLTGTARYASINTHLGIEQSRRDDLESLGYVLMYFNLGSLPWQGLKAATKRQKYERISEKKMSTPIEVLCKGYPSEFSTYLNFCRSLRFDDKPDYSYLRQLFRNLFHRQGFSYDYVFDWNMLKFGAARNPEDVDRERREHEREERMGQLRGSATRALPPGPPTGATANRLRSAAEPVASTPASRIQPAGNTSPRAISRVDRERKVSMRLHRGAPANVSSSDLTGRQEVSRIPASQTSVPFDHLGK

[10] = target: Casein kinase II subunit alpha' (Homo sapiens) (UniProt P19784); experiment: Selectivity interaction (KinomeScan (DiscoverX)) EUB0000655a CSNK2A2; conditions: at 10 µM
Chain of Casein kinase II subunit alpha' (Homo sapiens) (P19784 whole entry, looked up): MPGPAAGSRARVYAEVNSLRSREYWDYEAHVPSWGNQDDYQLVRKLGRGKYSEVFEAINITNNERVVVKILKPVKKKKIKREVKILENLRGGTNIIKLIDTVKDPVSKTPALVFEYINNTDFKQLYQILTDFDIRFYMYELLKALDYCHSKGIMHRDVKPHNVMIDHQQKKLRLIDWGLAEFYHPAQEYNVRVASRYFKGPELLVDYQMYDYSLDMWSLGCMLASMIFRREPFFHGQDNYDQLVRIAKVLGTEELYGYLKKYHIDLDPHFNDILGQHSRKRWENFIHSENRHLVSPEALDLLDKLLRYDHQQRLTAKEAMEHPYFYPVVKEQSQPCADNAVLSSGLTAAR

[11] = target: T3, Serine/threonine-protein kinase ICK (Homo sapiens) (UniProt Q9UPZ9); experiment: Selectivity interaction (Ambit KINOMEscan and KiNATiv profiling in Jurkat cells) EUB0000090b ICK; type: cell-based; conditions: at 1 µM
T3 sequence (whole entry): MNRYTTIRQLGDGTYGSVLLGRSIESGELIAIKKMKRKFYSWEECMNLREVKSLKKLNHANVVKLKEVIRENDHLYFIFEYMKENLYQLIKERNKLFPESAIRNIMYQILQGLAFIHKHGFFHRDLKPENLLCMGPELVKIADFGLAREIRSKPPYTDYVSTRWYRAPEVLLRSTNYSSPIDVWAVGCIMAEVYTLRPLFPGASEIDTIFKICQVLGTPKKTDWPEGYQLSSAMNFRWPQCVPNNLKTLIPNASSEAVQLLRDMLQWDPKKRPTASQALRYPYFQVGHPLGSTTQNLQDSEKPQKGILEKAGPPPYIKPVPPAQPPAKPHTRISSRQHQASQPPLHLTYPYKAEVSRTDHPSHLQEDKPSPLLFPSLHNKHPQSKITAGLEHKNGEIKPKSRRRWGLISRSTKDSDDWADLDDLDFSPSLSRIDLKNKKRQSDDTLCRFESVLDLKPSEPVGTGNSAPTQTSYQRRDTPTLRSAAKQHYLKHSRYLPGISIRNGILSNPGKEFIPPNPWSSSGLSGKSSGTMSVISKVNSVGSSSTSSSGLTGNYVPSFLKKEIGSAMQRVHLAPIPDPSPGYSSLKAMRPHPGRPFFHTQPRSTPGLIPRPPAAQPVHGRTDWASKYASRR

Chain of Cyclin-dependent kinase 9 (P50750 whole entry): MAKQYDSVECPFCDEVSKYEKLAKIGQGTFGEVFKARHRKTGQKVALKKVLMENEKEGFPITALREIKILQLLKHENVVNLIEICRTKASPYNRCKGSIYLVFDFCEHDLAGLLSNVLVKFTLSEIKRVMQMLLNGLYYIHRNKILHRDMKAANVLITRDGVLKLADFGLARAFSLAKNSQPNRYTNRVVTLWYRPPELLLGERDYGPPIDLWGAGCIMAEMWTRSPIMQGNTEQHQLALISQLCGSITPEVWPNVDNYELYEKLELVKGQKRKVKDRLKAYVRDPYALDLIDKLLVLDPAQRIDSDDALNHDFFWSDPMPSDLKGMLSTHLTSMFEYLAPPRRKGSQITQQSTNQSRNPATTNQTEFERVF

Structure (SMILES): COc1cc(N(C)c2ccnc3ccc(C(F)(F)F)cc23)cc(OC)c1OC
- % binding [1]: 81%

Structure (SMILES): CN(C(=O)c1cnn2cccnc12)c1cc2c(cc1N1CCOCC1)C(=O)N(C[C@@H](F)C(C)(C)O)C2
- EC50 [2]: 3.6 mM

Structure (SMILES): Nc1cnc(N2CCc3cc(S(=O)(=O)Nc4c(F)cc(Cl)cc4F)cc(N4CCCC4=O)c32)nc1 [TP-020n]
- % of control [3]: 99%

Structure (SMILES): O=C(NOC[C@H](O)CO)c1ccc(F)c(F)c1Nc1ccc(I)cc1F
- % of control [4]: 91%

Structure (SMILES): COc1cc(Nc2nc(C)cc(-c3cnn4nc(OC)ccc34)n2)cc(C(F)(F)F)c1
- % of control [5]: 80%

Structure (SMILES): CC(=O)Nc1cccc(-n2c(=O)n(C3CC3)c(=O)c3c(Nc4ccc(I)cc4F)n(C)c(=O)c(C)c32)c1
- % of control [6]: 94%

Structure (SMILES): Cc1ccc(-c2ccc3c(ccc4sc5c(c43)NC[C@@H](C)NC5=O)n2)cn1
- % of inhibition [7]: 74%

Structure (SMILES): N#Cc1cccc(-c2c[nH]c3ncnc(N4CCOCC4)c23)c1
- % of inhibition [8]: 17%

Structure (SMILES): O[C@H]1CC[C@H](Nc2ncc3nc(Nc4c(F)cc(F)cc4F)n([C@H]4CCOC4)c3n2)CC1
- % of control [9]: 11%

Structure (SMILES): CN(C)CCOc1ccc(-c2nc(-c3ccncc3)c(-c3ccc4c(c3)CC/C4=N\O)[nH]2)cc1
- % of control [10]: 74%

Structure (SMILES): CN(C)C/C=C/C(=O)Nc1ccc(C(=O)N2CCCC(Nc3ncc(Cl)c(-c4c[nH]c5ccccc45)n3)C2)cc1 (stereo unspecified)
- % of control [11]: 62%
